Assay results taken from PMC3092152 (Molecular oral microbiology, 2011).
Where no end group is shown, it is not given here.

The molecules below were run on S. mutans clinical strains (assay: alamarBlue antimicrobial susceptibility test). Settings: preliminary experiments; 16 S. mutans strains; peptide concentrations 20 μg/ml or below.
Format: cell-based, Streptococcus mutans

| Molecule | susceptibility of S. mutans strains to the peptide |
| --- | --- |
| HBD-1: human β-defensin, salivary cationic antimicrobial peptide (DHYNCVSSGGQCLYSACPIFTKIQGTCYRGKAKCCK; ends and bridges not checked; cysteine pairing not given here; UniProt P60022 33-68, looked up) | no susceptibility |
| histatin-5 | no susceptibility |
| lysozyme: host protein tested in preliminary experiments against 16 S. mutans strains (protein, UniProt P61626 19-148, looked up) Lysozyme C: KVFERCELARTLKRLGMDGYRGISLANWMCLAKWESGYNTRATNYNAGDRSTDYGIFQINSRYWCNDGKTPGAVNACHLSCSALLQDNIADAVACAKRVVRDPQGIRAWVAWRNRCQNRDVRQYVQGCGV | no susceptibility |
